Source: US20040224937A1, “Use of protein kinase C inhibitor for suppressing sustained slow postsynaptic excitation (SSPE)” (Pfizer Inc, priority 2003, published 2004)
Entries after “also recorded” stand apart in the source; their conditions may differ.

Legend:
[1] = test system: myenteric intrinsic primary afferent neurons (IPANs; AH neurons); test: Sustained slow postsynaptic excitation (SSPE) evoked by 1 Hz, 4 min stimulation of synaptic inputs; intracellular recording in ileum myenteric plexus; format: cell-based, guinea pig; conditions: for effect on the excitability increase associated with SSPE: stimulation of presynaptic inputs 1 Hz for 4 min
Description: (§1) Guinea pigs from the inbred Hartley strain colony of the Department of Anatomy and Cell Biology at the University of Melbourne were used. All efforts were made to minimize animal suffering and numbers of animals used. The experiments conformed to National Health and Medical Research Council of Australia guidelines and were approved by the University of Melbourne Animal Experimentation Ethics Committee. Guinea pigs of either sex (180-250 g) were stunned by a blow to the head and killed by severing the carotid arteries and spinal cord, and segments of ileum were removed into physiological saline. The segments were placed in a recording dish lined with silicone elastomer, opened along the line of the mesenteric attachment and pinned flat under moderate tension with the mucosa uppermost. During dissection, the tissue was immersed in physiological saline (composition in mM: NaCl 118, KCl 4.8, NaHCO3 25, NaH2PO4 1.0, MgSO4 1.2, glucose 11.1, CaCl2 2.5) and kept at room temperature. The mucosa, submucosa and circular smooth muscle were removed to expose the myenteric plexus. The recording dish (volume 4 mL) was then placed on the stage of an inverted microscope and continuously superfused (4 mL/min) with physiological saline that had been preheated to yield a bath temperature of 35-37° C. The superperfusion solution was bubbled with 95% O2 and 5% CO2 and contained nicardipine (3 μM) and hyoscine (1 μM) to inhibit muscle movement. The tissue was equilibrated with the perfusate for 1-2 h before recording was commenced.
(§2) Individual neurons were impaled using conventional intracellular microelectrodes (resistance, […]) filled with 1 M KCl. Signals were amplified using an AxoClamp 2B amplifier (Axon instruments, Foster City, Calif., USA), digitized at 5-20 kHz and stored using PC-based data acquisition software (Axoscope 8.0). Measurements were made after allowing the impalements to stabilize for at least 15 min without applying intracellular holding current. Neurons were identified as AH cells based on the presence of a hump on the falling phase of the action potential and, in most cells, a late after-hyperpolarising potential following the action potential. Stimuli were applied to inter-ganglionic connectives at a frequency of 1 Hz, via a fine tungsten stimulating electrode (tip diameter<50 μm) that was placed on a circumferentially located internodal strand adjacent to the ganglion. Pulses were 0.1 ms in duration and <0.3 mA in intensity.
(§3) Neuronal excitability was assessed, by injecting 500 ms depolarizing current pulses (0.05-0.2 nA). The depolarizing pulses were delivered at intervals of 40 s. The mean excitability was evaluated by averaging the numbers of action potentials evoked by the 6 depolarizing current pulses for periods of 4 min, prior to the 1 Hz stimulus, around the peak of the response, and for a period of 4 min after the end of the stimulus. To determine input resistance (Rin), small hyperpolarizing current pulses (duration 100 ms; intensity<0.02 nA) were injected before each depolarizing pulse. The membrane potential (MP) was sampled each 40 s. MP, Rin, and numbers of action potentials in response to depolarizing pulses were determined.

[2] = test system: myenteric intrinsic primary afferent neurons (IPANs; AH neurons); test: Direct effect of compounds on excitability, membrane potential, input resistance and action potentials of AH neurons (no or before presynaptic stimulation); format: cell-based, guinea pig
Description: as §1, §2, §3

O=S(=O)(NCCNC/C=C/c1ccc(Br)cc1)c1cccc2cnccc12 [H89]
effect on the excitability increase associated with SSPE ([1]; 1 μM): no effect; also recorded: not changed
effect on excitability, membrane potential or input resistance before stimulation of presynaptic inputs ([2]; 1 μM, about 15-25 min exposure): no changes

CCCC(=O)O[C@@H]1[C@@H](C)[C@@]2(O)[C@@H](C=C(CO)C[C@]3(O)C(=O)C(C)=C[C@@H]23)[C@@H]2C(C)(C)[C@]12OC(=O)CCC [PDBu, phorbol 12, 13 dibutyrate]
effect on excitability of the neuron ([2]; 1 μM, example neuron, FIG. 5A): increased the excitability
depolarization ([2]; 1 μM, example neuron, FIG. 5B): about 8 mV
increase of input resistance ([2]; 1 μM, example neuron, FIG. 5C): about 100 MΩ
amplitude of the after-hyperpolarizing potential (AHP) during exposure ([2]; 0.2-1 μM in bath for 5-10 min): decreased
duration of effect beyond washing out of the compound ([2]; 0.2-1 μM in bath for 5-10 min): ≥ 10 min

CN[C@@H]1C[C@H]2O[C@@](C)([C@@H]1OC)n1c3ccccc3c3c4c(c5c6ccccc6n2c5c31)C(=O)NC4 [staurosporine]
decrease of the peak change in excitability during SSPE ([1]; 1 μM, stimulation 1 Hz for 4 min, n=6, P<0.01 vs control): about 75%
effect on the excitability increase associated with SSPE ([1]; 1 μM): significantly smaller or no increase in neuronal excitability
effect on excitability, membrane potential or input resistance before stimulation of presynaptic inputs ([2]; 1 μM, about 15-25 min exposure): did not cause any change

[H]/N=C(/N)SCCCn1cc(C2=C(c3cn(C)c4ccccc34)C(=O)NC2=O)c2ccccc21 [RO31-8220, 3-[1-[3-(Amidinothio)propyl-1H-indol-3-yl]-3-(1-methyl-1H-indol-3-yl)maleimide Bisindolylmaleimide IX, methanesulfonate]
effect on the excitability increase associated with SSPE ([1]; 1 μM): not reduced
effect on the excitability increase associated with SSPE ([1]; 3.3 μM, n=6, P<0.1): reduced the degree to which the excitability increased; also recorded: reduction in the increase of AH neuron excitability
effect on antidromic action potential generation ([2]; 3.3 μM): did not cause a depression
effect on excitability, membrane potential or input resistance before stimulation of presynaptic inputs ([2]; 3.3 μM, 15 min exposure): without affecting
effect on antidromic action potentials ([2]; 10 μM, restored by increasing stimulus strength): sometimes suppressed

calphostin C
reversal of excitability already enhanced by successive stimuli (maintenance of SSPE) ([1]; 1 μM, added after SSPE had been enhanced): did not restore excitability to its pre-stimulus level
effect on the excitability increase associated with SSPE ([1]; 1 μM): blocked
effect on the excitability increase associated with SSPE ([1]; 1 μM, listed as Calphostin C): substantially reduced
effect on excitability, membrane potential or input resistance before stimulation of presynaptic inputs ([2]; 1 μM, about 15-25 min exposure): did not affect
